Measured values from PMC11247499, “2,8-Disubstituted-1,5-naphthyridines as Dual Inhibitors of Plasmodium falciparum Phosphatidylinositol-4-kinase and Hemozoin Formation with In Vivo Efficacy” (Journal of Medicinal Chemistry, 2024).
Values after ≈ are worked out from the molar mass of the structure shown. Values joined by “and” are separate entries in the source; they are usually repeats but may differ in a detail not shown here. Equal values may be shown once. Read-outs that look alike come from different tables or passages of the source. Values belong to the compound of their own block, whether it stands above or below them.

Columns and labels:
[1] = tested on: zebrafish embryos; assay: in vivo
[2] = in vivo; conditions: zebrafish, in vivo
[3] = tested on: P. falciparum NF54 strain; assay: Antiplasmodial activity, parasite lactate dehydrogenase assay, NF54; type: cell-based, Plasmodium falciparum; conditions: Plasmodium falciparum, NF54, 72 h, parasite lactate dehydrogenase assay over 72 h; read-out: Pf IC50 ± SD NF54
[4] = molecular target: PvPI4K (Plasmodium vivax, UniProt A5KB26); assay: biochemical
PvPI4K, sequence (A5KB26 entry or part of it): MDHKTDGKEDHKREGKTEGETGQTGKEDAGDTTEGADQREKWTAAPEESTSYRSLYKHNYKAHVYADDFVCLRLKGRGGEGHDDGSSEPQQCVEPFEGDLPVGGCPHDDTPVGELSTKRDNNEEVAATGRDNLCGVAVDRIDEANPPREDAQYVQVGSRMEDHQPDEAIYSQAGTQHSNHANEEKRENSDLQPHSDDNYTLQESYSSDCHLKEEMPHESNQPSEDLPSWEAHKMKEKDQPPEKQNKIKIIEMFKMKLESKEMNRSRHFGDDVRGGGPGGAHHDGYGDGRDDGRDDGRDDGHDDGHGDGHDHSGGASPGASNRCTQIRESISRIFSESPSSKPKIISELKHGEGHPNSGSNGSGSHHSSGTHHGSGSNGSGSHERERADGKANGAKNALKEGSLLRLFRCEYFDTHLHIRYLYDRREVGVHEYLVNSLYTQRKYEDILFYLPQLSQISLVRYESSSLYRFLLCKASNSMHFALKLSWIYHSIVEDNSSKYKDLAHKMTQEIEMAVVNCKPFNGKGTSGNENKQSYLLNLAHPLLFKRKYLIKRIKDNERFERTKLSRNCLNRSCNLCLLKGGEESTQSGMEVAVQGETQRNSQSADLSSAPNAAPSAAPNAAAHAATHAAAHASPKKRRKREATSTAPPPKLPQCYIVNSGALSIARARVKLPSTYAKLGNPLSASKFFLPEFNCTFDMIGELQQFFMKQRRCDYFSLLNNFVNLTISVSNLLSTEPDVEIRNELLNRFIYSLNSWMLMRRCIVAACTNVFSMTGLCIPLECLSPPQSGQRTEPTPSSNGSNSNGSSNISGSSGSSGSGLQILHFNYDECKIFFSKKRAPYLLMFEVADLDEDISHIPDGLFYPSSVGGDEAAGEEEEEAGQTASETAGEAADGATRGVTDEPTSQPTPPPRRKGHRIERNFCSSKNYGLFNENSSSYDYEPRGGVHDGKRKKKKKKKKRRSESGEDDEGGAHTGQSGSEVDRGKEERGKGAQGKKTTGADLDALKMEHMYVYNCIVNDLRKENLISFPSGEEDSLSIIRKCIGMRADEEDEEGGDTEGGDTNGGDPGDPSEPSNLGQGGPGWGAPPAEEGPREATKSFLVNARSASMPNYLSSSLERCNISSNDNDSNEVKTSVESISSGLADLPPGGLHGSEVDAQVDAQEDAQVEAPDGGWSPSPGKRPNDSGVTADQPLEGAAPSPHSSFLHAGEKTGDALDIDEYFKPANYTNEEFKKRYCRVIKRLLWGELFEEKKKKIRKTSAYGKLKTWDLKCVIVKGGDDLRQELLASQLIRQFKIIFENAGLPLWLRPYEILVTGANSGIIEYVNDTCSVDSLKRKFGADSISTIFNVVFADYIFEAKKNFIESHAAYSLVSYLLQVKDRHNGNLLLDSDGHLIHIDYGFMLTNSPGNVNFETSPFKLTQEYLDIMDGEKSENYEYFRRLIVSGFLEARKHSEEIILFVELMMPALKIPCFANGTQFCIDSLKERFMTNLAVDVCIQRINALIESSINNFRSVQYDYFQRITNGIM

[5] = tested on: Dd2_PI4K_CNV; assay: microbe, parasite or virus in culture; type: cell-based; conditions: Plasmodium falciparum, 72 h, read-out: Dd2_PI4K_CNV IC50
[6] = tested on: β-hematin (βH) formation; assay: NP-40 mediated cell-free β-hematin assay; conditions: read-out: β-hematin IC50
[7] = tested on: Chinese Hamster Ovary (CHO) cell line; assay: cells; type: cell-based; conditions: Cricetulus griseus, CHO, read-out: CHO IC50
[8] = tested on: Dd2; assay: microbe, parasite or virus in culture; type: cell-based; conditions: Plasmodium falciparum, DD2, 72 h, read-out: Dd2 IC50 ± SD
[9] = Solubility, miniaturized shake flask method; conditions: aqueous solution
[10] = tested on: multidrug-resistant strain, K1; assay: Antiplasmodial activity, parasite lactate dehydrogenase assay, K1; type: cell-based, Plasmodium falciparum; conditions: Plasmodium falciparum, K1, 72 h, parasite lactate dehydrogenase assay over 72 h; read-out: Pf IC50 ± SD K1
[11] = physchem
[12] = tested on: P. falciparum male gametes; assay: microbe, parasite or virus in culture; conditions: Plasmodium falciparum, 48 h, read-out: inhibition of exflagellation
[13] = cell-free NP-40 detergent-mediated assay, n = 2

SMILES: CCN(CC)c1ccc(C=O)cc1 [DEAB, Diethylaminobenzaldehyde]
teratogen ([1]; classification): yes | TI (teratogenic index) ([1]; ratio between LC50 and AC50, >3 classifies as teratogen): 4.6 | AC50 ([2]; 50% larvae population show a teratogenic phenotype): 1 µM | LC50 at 96 h ([2]; concentration at which 50% of larvae die at 96 h post fertilization): 4.6 µM

SMILES: O[C@H]1CNCC[C@@H]1Nc1ccnc2ccc(-c3ccc(C(F)(F)F)nc3)nc12 (racemic) [Compound 28, rac-trans-4-[[6-[6-(Trifluoromethyl)pyridin-3-yl]-1,5-naphthyridin-4-yl]amino]piperidin-3-ol]
IC50 [3]: 0.168 ± 0.055 µM | IC50 ([4]; purified recombinant PvPI4K, 10 μM ATP, ADP-Glo, mean of N ≥ 2, read-out: PvPI4K IC50 ± SD): 0.967 ± 0.163 µM | IC50 [5]: 0.182 ± 0.044 µM | IC50 [6, 13]: 95 ± 16 µM | IC50 ([7]; MTT assay over 48h): > 50 µM | IC50 [8]: 0.212 ± 0.127 µM | solubility at 20 h [9]: 200 µM (≈ 77.9 µg/mL) | IC50 [10]: 0.624 ± 0.076 µM

SMILES: FC(F)CN1CCC(Nc2ccnc3ccc(-c4ccc(C(F)(F)F)nc4)nc23)CC1 [Compound 23, N-[1-(2,2-Difluoroethyl)piperidin-4-yl]-6-[6-(trifluoromethyl)pyridin-3-yl]-1,5-naphthyridin-4-amine]
IC50 [3]: 0.88 ± 0.034 µM | solubility [11]: 20 µM (≈ 8.75 µg/mL) | IC50 [4]: 0.053 ± 0.028 µM | IC50 [6, 13]: 30 µM and < 60 µM

IC50 [6]: > 500 µM
SMILES: NS(=O)(=O)c1cccc(-c2ccc3nccc(-c4ccnc(C(F)(F)F)c4)c3n2)c1 [Compound 1]
inhibition at 2 µM [12]: 60% | IC50 ([7]; 48 h): 6 µM
